Experimental data taken from patent US10471035B2, “Compositions and methods for using esters of meroterpenes and of other resveratrol analogues” (Sunny BioDiscovery, priority 2014, dated 2019).
Values after ≈ are worked out from the molar mass of the structure shown.

Assays:
RAR = assay: Cignal RAR reporter assay; type: cell-based; details: 0.3 μg/ml
Source text: Tissue irritation is a common side effect of retinoids. It is mediated, at least in part, by retinoid interaction with retinoic acid receptors (RARs; Thacher S M, Vasudevan J, Chandraratna R A. Therapeutic applications for ligands of retinoid receptors. Curr Pharm Des. 2000 January; 6(1):25-58; Kambayashi H, Odake Y, Takada K, Funasaka Y, Ichihashi M, Kato S. N-retinoyl-D-glucosamine, a new retinoic acid agonist, mediates topical retinoid efficacy with no irritation on photoaged skin. Br J Dermatol. 2005 December; 153 Suppl 2:30-6).

[1] = test system: UVB-irradiated neonatal human dermal fibroblasts (HDF); assay: MTT cytotoxicity on UVB-irradiated HDF; type: cell-based; details: 10 μg/ml
Source text: Retinoids are used to remediate the effects of photoaging, caused by exposure to solar radiation (Tierney, E. P., Hanke C. W., “Recent Advances in Combination Treatments for Photoaging: Review of the Literature,” Dermatol. Surg., 2010, 36:829-40). Therefore, we compared the effect of bakuchiol and SBD.FA on confluent cultures of UVB-irradiated neonatal human dermal fibroblasts (HDF). The total irradiation dose (150mJ/cm2) was biologically relevant, i.e., equivalent to doses received by humans exposed to midday, clear sky, midsummer sun for a moderate period of time (Besaratinia, A., Kim, S. I., Pfeifer, G. P., “Rapid repair of UVA-induced oxidized purines and persistence of UVB-induced dipyrimidine lesions determine the mutagenicity of sunlight in mouse cells,” FASEB J., 2008, 22(7):2379-92). […] Under these conditions, the cytotoxicity at the highest concentration tested (10 μg/ml) compared to the water-treated control was 36% for bakuchiol and 8% for SBD.FA, as determined by the MTT method (Berridge M. V., Tan A. S., “Characterization of the Cellular Reduction of 3-(4,5-dimethylthiazol-2-yl)-2,5-diphenyltetrazolium bromide (MTT): Subcellular Localization, Substrate Dependence, and Involvement of Mitochondrial Electron Transport in MTT Reduction,” Arch. Biochem. Biophys. 1993, 303:474-482), using Molecular Devices microplate spectrophotometer MAX190 at 570 nm.

[2] = test system: non-irradiated neonatal HDF; assay: Cytotoxicity on non-irradiated neonatal HDF monolayers; type: cell-based, human; details: 12.5 μg/ml
[3] = test system: mouse melanoma cells (B16F10); assay: B16F10 melanoma growth and melanin; type: cell-based; details: Mus musculus, B16-F10; 2.5 μg/ml; read-out: inhibition of B16F10 melanocyte proliferation
Source text: Instead, cells cultured in the presence of SBD.SE grew slower and if allowed to reach monolayer, they become growth-arrested due to contact inhibition. […] Other retinoids, such as bexarotene, are known to have antineoplastic activity against cancers such as cutaneous T cell lymphoma.
The mechanism of action for this effect may be multifactorial and involve the inhibition of tyroinase and/or melanin secretion by melanocytes.

adult HEK = assay: Adult HEK proliferation; type: cell-based, human; details: Homo sapiens; 2.5 μg/ml
[4] = DPPH assay (free radical scavenging); type: biochemical; details: 520 nm
Source text: The objective of this experiment was to determine the antioxidant capacity of SBD.SE, using DPPH assay methodology. DPPH (2,2-diphenyl-1-picrylhydrazyl) is a stable free radical. The principle of the DPPH assay uses the reduction of the DPPH radical (purple) to diphenylpicrylhydrazine (yellow) as an indication of free radical scavenging capacity of a given test material (Schenk, G. H., Swieczkowski, N. K., “Colorimetric determination of pyrogallol and 2,6-dimethoxyphenol with diphenylpicrylhydrazyl,” Talanta, 1971, 18:230-4). Following the incubation of a test agent with DPPH solution, a reduction in absorbance at 520 nm compared to control is indicative of DPPH-scavenging. The degree of DPPH scavenging activity is expressed as % water control.

P. acnes = assay: MIC against planktonic P. acnes; type: cell-based, Propionibacterium acnes; details: Cutibacterium acnes; exponentially-growing planktonic bacteria, oxygen-free atmosphere; read-out: MIC (minimal inhibitory concentration)
Method: Serial dilutions of SBD.SE and SBD.FA were incubated with exponentially-growing planktonic P. acnes bacteria in oxygen-free atmosphere.
The MIC (minimal inhibitory concentration) for SBD.SE was determined to be about 30 μg/ml and for SBD.FA—about 60 μg/ml.

3T3 cells = assay: 3T3 Neutral Red phototoxicity (OECD 432); type: cell-based; details: up to at least 100 μg/ml
Method: Phototoxicity is defined as light-activated cytotoxicity. […] The protocol followed in this example was based on the OECD 432 Guidelines. Four 96 well plates were seeded with 3T3 cells (Sigma, St. Louis, Mo.; cat. 93061524-1VL) at 10,000 cells per well in DMEM supplemented with 10% iron-fortified calf serum, and grown overnight in humidified atmosphere at 37° C. in 5% CO2. Serial dilutions of SBD.SE and chlorpromazine (positive control) were added to 2 plates each. […]
[…] Plates were returned to the incubator for 24 h, afterward the medium was removed, cells were rinsed with PBS and placed in Neutral Red medium at 50 μg/ml in which cells were incubated for 3 more hours. Wells were then washed with PBS and Neutral Red was extracted from cells with 1.0% Glacial Acetic Acid/50% Ethanol/49% H2O solution.
Following a 30-minute extraction with mixing, the absorbance of each well was measured at 570 nm with Molecular Devices SpectraMax® microplate spectrophotometer. P values were calculated using two-tailed Student's test and p=0.05 was set as borderline for statistical significance.

[5] = UVB irradiation, HPLC-MS profile; type: physicochemical; details: irradiated vs non-irradiated
Source text: Both compounds were irradiated with UVB light and their HPLC-MS profile was compared to their respective non-irradiated controls. FIGS. 2, 3, 6, and 7 show HPLC chromatograms of UVB-irradiated (lower portions) and non-irradiated samples (upper portions) of bakuchiol (FIGS. 2 and 3) and SBD.SE (FIGS. 6 and 7) detected at 254 nm (FIGS. 2 and 6) and 230 nm (FIGS. 3 and 7).

## CC1=C(/C=C/C(C)=C/C=C/C(C)=C/C(=O)O)C(C)(C)CCC1 [ATRA, all-trans retinoic acid, reference compound]
RAR
  increase of RAR-mediated transcription: 460%

## C=CC(C)(/C=C/c1ccc(OC(=O)/C=C/c2ccc(O)c(OC)c2)cc1)CCC=C(C)C (stereo not shown) [SBD.FA]
[1]; human, 48 h
  cytotoxicity compared to the water-treated control: 8%
[2]; human
  cytotoxicity: 8%
[3]
  inhibition at 2.5 µg/mL: 53%
Adult HEK
  inhibition at 2.5 µg/mL: 21%
[4]; 0.5 ug/ml
  DPPH color (% Control): 102 % Control
[4]; 2 ug/ml
  DPPH color (% Control): 99 % Control
[4]; 10 ug/ml
  DPPH color (% Control): 60 % Control
P. acnes
  MIC: ~60 µg/mL (≈ 139 µM)
3T3 cells
  cytotoxicity in absence and presence of UVB light: lack of significant cytotoxicity

## C=C[C@@](C)(/C=C/c1ccc(O)cc1)CCC=C(C)C [bakuchiol, reference compound]
[1]; UVB 150mJ/cm2, added 24 h before, terminated 24 h after irradiation, MTT
  cytotoxicity compared to the water-treated control: 36%
[2]; monolayers formed before addition
  cytotoxicity: 39%
[4]; 0.5 ug/ml
  DPPH color (% Control): 85 % Control
[4]; 2 ug/ml
  DPPH color (% Control): 92 % Control
[4]; 10 ug/ml
  DPPH color (% Control): 46 % Control
[5]
  stability under UVB irradiation (HPLC-MS): disintegrates
